Measured values published in US20200237871A1, “METHODS FOR MITIGATING LIVER INJURY AND PROMOTING LIVER HYPERTROPHY, REGENERATION AND CELL ENGRAFTMENT IN CONJUNCTION WITH RADIATION AND/OR RADIOMIMETIC TREATMENTS” (Janssen Pharmaceutica NV, priority 2019, published 2020).
“Also recorded” adds a separate entry of the source.

Assays:
Format in all cases: in vivo, mouse
C57BL6 male mice = experiment: Volume of untreated (non-irradiated) caudate lobe after partial hepatic irradiation (Example 1); conditions: 50 Gy to median lobe; 300 μg/kg sc 10 minutes after irradiation; one month after HIR; n=4 per group; p-value <0.00932
Experimental: 8-12-week-old C57BL6 male mice were housed in the Institute for Animal Studies at Albert Einstein College of Medicine and fed regular chow. Animals were weighed in the beginning of the experiment and before tissue collection. All experiments were performed to according to protocols approved by Institutional Animal Care and Use Committee at Albert Einstein College of Medicine.
Image-guided external beam irradiation was performed using a small animal radiation research platform (SARRP, Xstrahl Inc., Suwanee, Ga.). Mice were given gastrografin contrast through gavage to improve visualization of the gastrointestinal (GI) tract. After approximately 2 minutes, mice were positioned on a tubular couch and anesthetized with ˜2% Isofluorane (Isothesia, USP) in 2 L/min pure oxygen. A cone-beam computed tomography (CBCT) scan was acquired and a treatment plan irradiating the median lobe and right lobe was generated using the MuriPlan software. To minimize toxicity, irradiation was performed using 2 parallel opposed fields. […]
With fixed physiologic organ size, non-irradiated liver undergoes hypertrophy in effort to compensate for the irradiated atrophic lobe. The volume of the caudate lobe was measured as a non-irradiated lobe in this experiment.

factor VIII (FVIII) = experiment: Factor VIII production in plasma and liver of Hemophilia A mice (ELISA, Western blot, mRNA) (Example 6)
Description: 8-16-week-old male C57/BL6 mice, 8-16-week-old female and male B6129SF2/J mice (donor for isolating LSECs) and 8-16-week-old female and male Hemophilia mice (F^8tm1Kaz) mice were used in this study. Mice were housed in groups of up to 5 in micro-isolator cages on stainless steel racks (Allentown, Inc., Allentown, N.J.) with a total floor space of 500 cm^2. The cages utilized an external water bottle and a dual feeder rack (Fisher Scientific, Hampton, N.H.). These cages were stored in the storage rack which provided temperature, humidity, and ventilation control to each individual cage (Allentown, Inc.). Bed-o'Cobs ⅛″ (Fisher Scientific) were used as bedding material in each cage.
The methods were identical to Experiment 5 as described above; including the preparation of test articles (solutions of RWJ-800088 and AdHGF), isolation and transplant of LSECs, and Hepatic irradiation.
The livers of mice were irradiated at 50 Gy by using an X-ray irradiator (SARRP). At 24 hours post-irradiation, the LSECs (1×10^6 cells/mouse) were injected to the mouse through tail vein. […]
A tail bleeding test was performed in which the extent of bleeding and time to clotting over the course of 30 minutes was evaluated. FVIII protein levels were evaluated by Western blot and mRNA profiling in the blood and liver to evaluate the extent to which there was engraftment of functioning LSECs that produce FVIII. […]

DPPIV KO mice = experiment: Engraftment of transplanted LSECs and hepatocytes by DPPIV immunostaining after HIR (Example 7); conditions: Study A
Experimental: 8-12-week-old male Di-peptyl peptidase IV knockout (Dppiv^−/−) mice and 8-12-week-old male C57BL/6 mice were used in this study.
The methods were identical to Experiment 5 as described above; including the preparation of test articles (solutions of RWJ-800088), isolation and transplant of LSECs, and Hepatic irradiation. In addition, Romiplostim was purchased from pharmacy and came in 250 μg powder. It was reconstituted per manufacturers description using solvent for solution for injection. After reconstitution, a deliverable volume of 0.5 mL solution contained 250 μg of romiplostim (500 μg/mL).
Animals were weighed in the beginning of the experiment.
The mice were transplanted with DPPIV^+ 5×10^5 liver sinusoidal endothelial cells (LSECs) intrasplenically 4 or 5 days later. The mice were then injected with 300 μg/kg of RWJ-800088 or Romiplostim intraperitoneally 10 minutes after LSEC transplantation as shown in Table 7.
The mice were then monitored until they made a full recovery and returned to the cage. The mice were followed for 2 and 5 months and necropsied. The liver was excised and prepared for the frozen section. The immunostaining of DPPIV activity was performed to examine the repopulation of the transplanted DPPIV^+ cells in the liver. […]

methoxypolyethyleneglycol20000-propionyl-L-Isoleucyl-L-Glutamyl-Glycyl-L-Prolyl-L-Threonyl-L-Leucyl-L-Arginyl-L-Glutaminyl-L-2-Naphthylalanyl-L-Leucyl-L-Alanyl-L-Alanyl-L-Arginyl-Sarcosyl-Ne-(methoxypolyethyleneglycol20000-propionyl-L-Isoleucyl-L-Glutamyl-Glycyl-L-Prolyl-L-Threonyl-L-Leucyl-L-Arginyl-L-Glutaminyl-L-2-Naphthyl alanyl-L-Leucyl-L-Alanyl-L-Alanyl-L-Arginyl-Sarcosyl-)-Lysinamide [RWJ-800088]
non-irradiated caudate lobe size, HIR+TPOm vs. HIR+saline (C57BL6 male mice): significant increase | levels of Factor VIII mRNA and activated protein in plasma and liver (factor VIII (FVIII); HIR+LSECs+RWJ-800088 treated hemophilia mice): increased levels | expression of factor VIII (FVIII) by ELISA in plasma and liver compared to non-treated Haemophilia A mice (factor VIII (FVIII); HIR+LSECs+drug): prolonged expression | repopulation of LSECs in the irradiated liver tissue (DPPIV immunostaining) (DPPIV KO mice; 2 months after HIR, 50 Gy, LSECs 4 or 5 days after HIR, 300 μg/kg intraperitoneally 10 minutes after LSEC transplantation): repopulation of LSECs in the irradiated liver tissue was observed | DPPIV staining of liver lobes (DPPIV KO mice; 5 months after HIR, two surviving mice (mouse 1: median, right, left lobes; mouse 2: median and right lobes), listed as RWJ-80088): extensively positive staining; also recorded: strong DPPIV staining | DPPIV staining of 4 different liver lobes (DPPIV KO mice; one mouse at 2 months after HIR, median lobe least area covered): All 4 lobes showed positive staining
